Assay results: patent publication US12570642B2, “GLP-IR modulating compounds” (Gilead Sciences, Inc., priority 2021, dated 2026)

Molecular target: GLP-1R (Homo sapiens, UniProt P43220)
Test: GLP-1R Activation - cAMP Assay
Type: cell-based
Details: cAMP increase in CHO cells stably expressing GLP-1R; each compound run on one of the two cAMP assays (Assay 1 or Assay 2, not specified)
Summary of the method: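 CHO cells stably expressing GLP-1R, plated at 1,000 cells/well overnight, then equilibrated 1 h in HBSS with 20 mM Hepes and 0.1% BSA. Agonist added as 10-point dose response for 30 min at 37 °C. cAMP measured by HTRF (Cisbio Gs Dynamic kit); EC50 from sigmoidal fit.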

Sequence of GLP-1R (P43220 24-463): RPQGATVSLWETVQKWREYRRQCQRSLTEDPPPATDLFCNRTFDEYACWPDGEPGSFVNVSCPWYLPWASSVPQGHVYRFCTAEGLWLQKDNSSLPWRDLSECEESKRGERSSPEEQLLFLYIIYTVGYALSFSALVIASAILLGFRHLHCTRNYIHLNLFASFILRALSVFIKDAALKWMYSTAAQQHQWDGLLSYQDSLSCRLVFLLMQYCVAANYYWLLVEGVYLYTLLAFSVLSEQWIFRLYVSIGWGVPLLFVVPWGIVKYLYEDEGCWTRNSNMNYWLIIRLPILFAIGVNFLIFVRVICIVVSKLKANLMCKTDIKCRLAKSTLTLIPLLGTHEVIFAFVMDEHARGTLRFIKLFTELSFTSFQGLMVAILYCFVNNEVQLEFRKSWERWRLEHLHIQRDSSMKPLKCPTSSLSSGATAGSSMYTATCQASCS

Compound | EC50 [pM]
COc1nc(Cl)ccc1COc1cccc(-c2cc(F)c(Cc3nc4c(F)cc(C(=O)O)cc4n3C3COCC3(C)C)cc2F)n1 (centres unmarked) [Example 170, 2-(4-(6-((6-chloro-2-methoxypyridin-3-yl)methoxy)pyridin-2-yl)-2,5-difluorobenzyl)-1-(4,4-dimethyltetrahydrofuran-3-yl)-4-fluoro-1H-benzo[d]imidazole-6-carboxylic Acid] | 227
CO[C@]1(C)COC[C@H]1n1c(Cc2cc(F)c(-c3cccc(OCc4ccc(C#N)cc4F)n3)cc2F)nc2ccc(C(=O)O)cc21 (single isomer, unassigned) [Example 312] | 397
CC1(C)COC[C@H]1n1c(Cc2cc(F)c(-c3cccc(OCc4c(F)cc(C#N)cc4F)n3)cc2F)nc2c(F)cc(C(=O)O)cc21 [Example 498, (S)-2-(4-(6-((4-cyano-2,6-difluorobenzyl)oxy)pyridin-2-yl)-2,5-difluorobenzyl)-1-(4,4-dimethyltetrahydrofuran-3-yl)-4-fluoro-1H-benzo[d]imidazole-6-carboxylic acid] | 508
COCCn1c(Cc2c(F)cc(-c3cccc(OCc4ccc(-n5ccnn5)cc4)n3)c(F)c2F)nc2c(F)cc(C(=O)O)cc21 [Example 222, 2-(4-(6-((4-(1H-1,2,3-triazol-1-yl)benzyl)oxy)pyridin-2-yl)-2,3,6-trifluorobenzyl)-4-fluoro-1-(2-methoxyethyl)-1H-benzo[d]imidazole-6-carboxylic acid] | 136
CO[C@]1(C)COC[C@@H]1n1c(Cc2cc(F)c(-c3cccc(OCc4ccc(C#N)cc4F)n3)cc2F)nc2ccc(C(=O)O)cc21 (single isomer, unassigned) [Example 311B, 2-[[4-[6-[(4-cyano-2-fluoro-phenyl)methoxy]-2-pyridyl]-2,5-difluoro-phenyl]methyl]-3-[4-methoxy-4-methyl-tetrahydrofuran-3-yl]benzimidazole-5-carboxylic Acid] | 159
CC1(C)COC[C@H]1n1c(Cc2ccc(-c3cccc(OCc4ccc(C#N)cc4)n3)cc2F)nc2c(F)cc(C(=O)O)cc21 [Example 372, (S)-2-(4-(6-((4-cyanobenzyl)oxy)pyridin-2-yl)-2-fluorobenzyl)-1-(4,4-dimethyltetrahydrofuran-3-yl)-4-fluoro-1H-benzo[d]imidazole-6-carboxylic acid] | 163
COCCn1c(Cc2cc(F)c(-c3cccc(OCc4cnc(C(F)F)cn4)n3)cc2F)nc2ccc(C(=O)O)cc21 [Example 94] | 23900
COCCn1c(Cc2cc(F)c(-c3cccc(OCc4ccc(C#N)cc4)n3)cc2F)nc2ccc(C(=O)O)cc21 [Example 511, 2-(4-(6-((4-cyanobenzyl)oxy)pyridin-2-yl)-2,5-difluorobenzyl)-1-(2-methoxyethyl)-1H-benzo[d]imidazole-6-carboxylic acid] | 588
COCCn1c(Cc2cc(F)c(-c3cccc(OCc4cc(F)c(C)cc4F)n3)cc2F)nc2ccc(C(=O)O)cc21 [Example 28, 2-(4-(6-((2,5-difluoro-4-methylbenzyl)oxy)pyridin-2-yl)-2,5-difluorobenzyl)-1-(2-methoxyethyl)-1H-benzo[d]imidazole-6-carboxylic Acid] | 1460
N#Cc1ccc(COc2cccc(-c3cc(F)c(Cc4nc5ccc(C(=O)O)cc5n4C[C@@]45CO[C@@H](CCO4)C5)cc3F)n2)c(F)c1 (racemic) [Example 272, 1-(((5S)-2,6-dioxabicyclo[3.2.1]octan-1-yl)methyl)-2-(4-(6-((4-cyano-2-fluorobenzyl)oxy)pyridin-2-yl)-2,5-difluorobenzyl)-1H-benzo[d]imidazole-6-carboxylic acid] | 2110
CC1(C)COC[C@H]1n1c(Cn2cc(Cl)c(-c3cccc(OCc4ccc(C#N)cc4F)n3)cc2=O)nc2c(F)cc(C(=O)O)cc21 [Example 326, (S)-2-((5′-chloro-6-((4-cyano-2-fluorobenzyl)oxy)-2′-oxo-[2,4′-bipyridin]-1′(2′H)-yl)methyl)-1-(4,4-dimethyltetrahydrofuran-3-yl)-4-fluoro-1H-benzo[d]imidazole-6-carboxylic acid] | 236
CC1(C)COC[C@H]1n1c(Cc2cc(F)c(-c3ccnc(OCc4ccc(C#N)cc4F)n3)cc2F)nc2c(Cl)cc(C(=O)O)cc21 [Example 129, (S)-4-chloro-2-(4-(2-((4-cyano-2-fluorobenzyl)oxy)pyrimidin-4-yl)-2,5-difluorobenzyl)-1-(4,4-dimethyltetrahydrofuran-3-yl)-1H-benzo[d]imidazole-6-carboxylic Acid] | 271
COC(C)(C)Cn1c(Cc2cc(F)c(-c3cccc(OCc4ccc(Cl)cc4F)n3)cc2F)nc2ccc(C(=O)O)cc21 [Example 510, 2-(4-(6-((4-chloro-2-fluorobenzyl)oxy)pyridin-2-yl)-2,5-difluorobenzyl)-1-(2-methoxy-2-methylpropyl)-1H-benzo[d]imidazole-6-carboxylic acid] | 509
CO[C@H](C)Cn1c(Cc2cc(F)c(-c3cccc(OCc4ccc(C#N)cc4)n3)cc2F)nc2c(F)cc(C(=O)O)cc21 [Example 381, (R)-2-(4-(6-((4-cyanobenzyl)oxy)pyridin-2-yl)-2,5-difluorobenzyl)-4-fluoro-1-(2-methoxypropyl)-1H-benzo[d]imidazole-6-carboxylic acid] | 267
CC1(C)COC[C@H]1n1c(Cc2cc(F)c(-c3cccc(OCc4ccc(C#N)cc4)n3)cc2F)nc2cc(Cl)c(C(=O)O)cc21 [Example 397, (S)-5-chloro-2-(4-(6-((4-cyanobenzyl)oxy)pyridin-2-yl)-2,5-difluorobenzyl)-1-(4,4-dimethyltetrahydrofuran-3-yl)-1H-benzo[d]imidazole-6-carboxylic Acid] | 546
CC1(C)COC[C@H]1n1c(Cc2cc(F)c(-c3ccc(F)c(OCc4ccc(Cl)cc4F)n3)cc2F)nc2ccc(C(=O)O)cc21 [Example 497, (S)-2-(4-(6-((4-chloro-2-fluorobenzyl)oxy)-5-fluoropyridin-2-yl)-2,5-difluorobenzyl)-1-(4,4-dimethyltetrahydrofuran-3-yl)-1H-benzo[d]imidazole-6-carboxylic acid] | 206

More lines, now with the values ahead:

EC50 [pM] | Compound
165 | CC(=O)N1Cc2ccc(COc3cccc(-c4cc(F)c(Cc5nc6ccc(C(=O)O)cc6n5C[C@@H]5CCO5)cc4F)n3)cc2C1 [Example 522, (S)-2-(4-(6-((2-acetylisoindolin-5-yl)methoxy)pyridin-2-yl)-2,5-difluorobenzyl)-1-(oxetan-2-ylmethyl)-1H-benzo[d]imidazole-6-carboxylic acid]
81 | CC1(C)COCC1n1c(Cc2cc(F)c(-c3ccc(F)c(OCc4ccc(C(F)(F)F)cc4F)n3)cc2F)nc2c(F)cc(C(=O)O)cc21 (centres unmarked) [Example 503, 2-(2,5-difluoro-4-(5-fluoro-6-((2-fluoro-4-(trifluoromethyl)benzyl)oxy)pyridin-2-yl)benzyl)-1-(4,4-dimethyltetrahydrofuran-3-yl)-4-fluoro-1H-benzo[d]imidazole-6-carboxylic acid]
956 | CC1(C)COC[C@H]1n1c(Cc2cc(F)c(-c3cccc(OCc4ccc(C#N)cc4)n3)cc2F)nc2ccc(C(=O)O)nc21 [Example 440, (S)-2-(4-(6-((4-cyanobenzyl)oxy)pyridin-2-yl)-2,5-difluorobenzyl)-3-(4,4-dimethyltetrahydrofuran-3-yl)-3H-imidazo[4,5-b]pyridine-5-carboxylic acid]
182 | CC1(C)COC[C@H]1n1c(Cc2cc(F)c(-c3cccc(OCc4cc(F)c(Cl)cc4F)n3)cc2F)nc2ccc(C(=O)O)cc21 [Example 490, (S)-2-(4-(6-((4-chloro-2,5-difluorobenzyl)oxy)pyridin-2-yl)-2,5-difluorobenzyl)-1-(4,4-dimethyltetrahydrofuran-3-yl)-1H-benzo[d]imidazole-6-carboxylic acid]
141 | COc1cc(Cl)ccc1COc1cccc(-c2cc(F)c(Cc3nc4ccc(C(=O)O)cc4n3[C@@H]3COCC3(C)C)cc2F)n1 [Example 462, (S)-2-(4-(6-((4-chloro-2-methoxybenzyl)oxy)pyridin-2-yl)-2,5-difluorobenzyl)-1-(4,4-dimethyltetrahydrofuran-3-yl)-1H-benzo[d]imidazole-6-carboxylic acid]
74 | COC(=O)N1Cc2ccc(COc3nc(-c4cc(F)c(Cc5nc6c(F)cc(C(=O)O)cc6n5C[C@@H]5CCO5)cc4F)ccc3F)cc2C1 [Example 515, (S)-2-(2,5-difluoro-4-(5-fluoro-6-((2-(methoxycarbonyl)isoindolin-5-yl)methoxy)pyridin-2-yl)benzyl)-4-fluoro-1-(oxetan-2-ylmethyl)-1H-benzo[d]imidazole-6-carboxylic acid]
85 | COC[C@H]1COC[C@H]1n1c(Cc2cc(F)c(-c3cccc(OCc4ccc(C#N)cc4F)n3)cc2F)nc2ccc(C(=O)O)cc21 (single isomer, unassigned) [Example 176A]
168 | Cc1cc(Cc2nc3c(F)cc(C(=O)O)cc3n2[C@@H]2COCC2(C)C)c(F)cc1-c1ccc(F)c(OCc2ccc(C#N)cc2F)n1 [Example 207, (S)-2-(4-(6-((4-cyano-2-fluorobenzyl)oxy)-5-fluoropyridin-2-yl)-2-fluoro-5-methylbenzyl)-1-(4,4-dimethyltetrahydrofuran-3-yl)-4-fluoro-1H-benzo[d]imidazole-6-carboxylic acid]
155 | CC1(C)COC[C@H]1n1c(Cc2cc(F)c(-c3ccc(F)c(OCc4ccc(C#N)cc4)n3)cc2F)nc2c(F)cc(C(=O)O)cc21 [Example 325, (S)-2-(4-(6-((4-cyanobenzyl)oxy)-5-fluoropyridin-2-yl)-2,5-difluorobenzyl)-1-(4,4-dimethyltetrahydrofuran-3-yl)-4-fluoro-1H-benzo[d]imidazole-6-carboxylic acid]
600 | COCCn1c(Cc2cc(F)c(-c3cccc(OCc4ccc(-c5cnn(C(F)(F)F)c5)cc4F)n3)cc2F)nc2ccc(C(=O)O)cc21 [Example 7, 2-(2,5-difluoro-4-(6-((2-fluoro-4-(1-(trifluoromethyl)-1H-pyrazol-4-yl)benzyl)oxy)pyridin-2-yl)benzyl)-1-(2-methoxyethyl)-1H-benzo[d]imidazole-6-carboxylic acid]
